# Source: patent US20250339419A1, “METHODS OF TREATING OCULAR INFLAMMATORY DISEASES” (priority 2021, published 2025)
# “And” between values parts separate entries of the source, which are not always exact repeats. Equal entries are not always repeated. “Also recorded” adds a separate entry of the source. Where two headings read alike, the source gives them in different places.
# Legend:
# [1] = Phase 1 double-masked multiple-dose plasma PK study of roflumilast topical ophthalmic suspension (0.3%); format: in vivo, human; details: for plasma profile, fluctuation between peak (Cmax) and trough (pre-dose): Day 8; for accumulation ratios (RAUC0-12): by Day 8, mean (SD)
# Protocol: A pharmacokinetic (PK) study of a roflumilast topical ophthalmic suspension was conducted. Data at Day 1 (Example 15), Day 8 (Example 16), and comparative data (Example 17) is provided.
# The study was a Phase 1, double-masked, multiple-dose study conducted in healthy volunteers. The multiple-dose study was conducted over a single dose level where participants were randomly assigned to receive a masked dose of roflumilast topical ophthalmic suspension eye drops (n=14) or vehicle only (n=2) as set forth in Table 7, administered as a single drop in each eye BID (twice daily, every 12 hours) for seven days, followed by a single morning dose on Day 8.
# Blood samples were collected at multiple time points on Days 1, 2, 8, and 9. The following nominal blood sampling time points were used for the PK assessment of roflumilast topical ophthalmic suspension and its main active metabolite on days 1 and 8:
# Roflumilast topical ophthalmic suspension and roflumilast n-oxide (metabolite) concentrations in plasma were evaluated using Phoenix™ WinNonlin® version and 8.4 (Pharsight Corporation, USA). For both analytes, the upper limit of quantification (ULOQ) was […] and the lower limit of quantification (LLOQ) was […].
# Analysis Procedures: Actual collection times were used for PK parameter determinations, calculated with respect to the dose time. Time points preceding Cmax, the first measurable concentration that was BLOQ were set to zero for PK parameter determination. Where the final plasma concentration was BLOQ, the concentration at the preceding time point was deemed to be the last measurable concentration for calculation of λz. AUC parameters were determined by the linear-up, log-down trapezoidal rule. λz was determined by log-linear regression obtained on at least the 3 last quantifiable concentrations (not including Cmax); the default “best fit” method by Phoenix WinNonlin was used for the selection of slopes to determine λz. In addition, every PK profile was scrutinized visually and adjustments made to the slope selection, where necessary. The goodness of fit of the regression was evaluated using the square of the correlation coefficient (adjusted R2) which was required to be at least 0.8 for the λz l value to be considered reliable. Regression-based parameters (AUC0-inf, t1/2) were calculated if the adjusted R2 value of the regression line was greater than or equal to 0.8 and residual area <20%. The time point where the ln-linear λz calculation begins (Lower) and the actual sampling time of the last measurable concentration used to estimate the λz (λz Upper) as well as the R2-adjusted for the ln-linear regression for the calculation of the elimination rate constant were listed.
# [2] = design: AUC 0-∞: unit not given beside the values; details: Observed PO (Day 1), single 500 μg dose; cited from earlier work
# [3] = plasma, Day 8, mean (SD), topical ocular 0.3% BID 7 days + morning dose
smiles,measurement,setting,value
"O=C(Nc1c(Cl)c[n+]([O-])cc1Cl)c1ccc(OC(F)F)c(OCC2CC2)c1 [Roflumilast N-oxide, 3-cyclopropylmethoxy-4-difluoromethoxy-N-(3,5-dichloropyrid-4-yl 1-oxide)benzamide]",mean plasma profile,"[1]; Day 1, FIGS. 14-17",increased over the 12 hours post-first dose
same,plasma levels relative to roflumilast,"[1]; Day 1, FIGS. 16-17",consistently higher than roflumilast after 2 hours
same,"plasma profile, fluctuation between peak (Cmax) and trough (pre-dose)",[1],"very stable, showing little fluctuation"
same,mean peak plasma profile relative to parent,"[1]; Day 8, FIGS. 22-23",consistently higher than that of the parent
same,PTF % (percent peak-to-trough fluctuation),"[1]; Day 8, mean (SD)",0.287 (0.223) %
same,RAUC0-12 (accumulation ratio),"[1]; Day 8, mean (SD)",9.25 (2.92)
same,accumulation ratios (RAUC0-12),[1],9.25
same,C12,"[1]; plasma, Day 1, mean, 12 hr post-first dose",1.37 ng/mL
same,AUC0-t,"[1]; plasma, Day 1, mean, to 12 hr post-first dose",9.38 ng·h/mL
same,Clast,"[1]; plasma, Day 1, mean, to 24 hr post-first dose",3.49 ng/mL
same,Cmax,"[1]; plasma, Day 1, mean, 0.3% suspension 1 drop each eye BID",1.38 ng/mL
same,Tmax,"[1]; plasma, Day 1, median",11.83 h
same,AUC0-t,"[1]; plasma, Day 8, mean (SD)",156 (79.3) h*ng/mL
same,AUC0-tau,"[1]; plasma, Day 8, mean (SD)",78.4 (39.4) h*ng/mL
same,AUC24,"[1]; plasma, Day 8, mean (SD)",149 (77.4)** h*ng/mL
same,C12 trough,"[1]; plasma, Day 8, mean (SD)",6.33 (3.35) ng/mL
same,Cavg,"[1]; plasma, Day 8, mean (SD)",6.53 (3.29) ng/mL
same,Cmax,[1]; [3],7.93 (3.88) ng/mL
same,Tmax,"[1]; plasma, Day 8, median",1.00 h
"O=C(Nc1c(Cl)cncc1Cl)c1ccc(OC(F)F)c(OCC2CC2)c1 [Roflumilast, N-(3,5-dichloropyrid-4-yl)-3-cyclopropylmethoxy-4-difluoromethoxybenzamide]",accumulation from the AM to the PM dose (C12 vs Clast),[1]; Day 1,~2 fold
same,"plasma profile, fluctuation between peak (Cmax) and trough (pre-dose)",[1],"very stable, showing little fluctuation"
same,PTF % (percent peak-to-trough fluctuation),"[1]; Day 8, mean (SD)",0.893 (0.446) %
same,RAUC0-12 (accumulation ratio),"[1]; Day 8, mean (SD)",2.63 (1.39)
same,"plasma concentrations, topical ocular route compared to oral (PO) administration",[1]; FIGS. 24-26,"lower than those of PO-administered roflumilast; also recorded: significantly lower, producing a flatter concentration-time profile without a distinct Cmax peak"
same,AUC0-tau Geometric Mean Ratio (Day 8/Day 1) (90% CI),[1]; Group 1,2.37 (1.90-2.94)
same,C12 (trough) Difference in LS Means (Day 8 − Day 1) (90% CI),[1]; Group 1,0.66 (0.45-0.86)
same,C12 (trough) Geometric Mean Ratio (Day 8/Day 1) (90% CI),[1]; Group 1,1.93 (1.57-2.37)
same,Cmax Geometric Mean Ratio (Day 8/Day 1) (90% CI),[1]; Group 1,1.79 (1.41-2.27)
same,C12 (trough) LS Means,"[1]; Group 1, Day 1, n 14",−1.44
same,C12 (trough) LS Means,"[1]; Group 1, Day 8, n 14",−0.78
same,accumulation ratios (RAUC0-12),[1],2.63
same,AUC,"[1]; human, plasma, other: topical ophthalmic eye drops, 0.3 % suspension, single drop in each eye BID, Group 1, Day 1, read-out: AUC0-tau Geometric Mean",2.91 ng·h/mL
same,concentration at 12 h,"[1]; human, plasma, other: topical ophthalmic eye drops, 0.3 % suspension, single drop in each eye BID, Group 1, Day 1, read-out: C12 (trough) Geometric Mean",0.24 ng/mL
same,Cmax,"[1]; human, plasma, other: topical ophthalmic eye drops, 0.3 % suspension, single drop in each eye BID, Group 1, Day 1, read-out: Cmax Geometric Mean",0.47 ng/mL
same,AUC,"[1]; human, plasma, other: topical ophthalmic eye drops, 0.3 % suspension, single drop in each eye BID, Group 1, Day 8, read-out: AUC0-tau Geometric Mean",6.88 ng·h/mL
same,concentration at 12 h,"[1]; human, plasma, other: topical ophthalmic eye drops, 0.3 % suspension, single drop in each eye BID, Group 1, Day 8, read-out: C12 (trough) Geometric Mean",0.46 ng/mL
same,Cmax,"[1]; human, plasma, other: topical ophthalmic eye drops, 0.3 % suspension, single drop in each eye BID, Group 1, Day 8, read-out: Cmax Geometric Mean",0.85 ng/mL
same,concentration at 12 h,"[1]; human, plasma, other: topical ophthalmic eye drops, 0.3 % suspension, single drop in each eye BID, plasma, Day 1, mean, 12 hr post-first dose, read-out: C12",0.29 ng/mL
same,AUC0-t,"[1]; human, plasma, other: topical ophthalmic eye drops, 0.3 % suspension, single drop in each eye BID, plasma, Day 1, mean, to 12 hr post-first dose, read-out: AUC0-t",3.6 ng·h/mL
same,concentration at 24 h,"[1]; human, plasma, other: topical ophthalmic eye drops, 0.3 % suspension, single drop in each eye BID, plasma, Day 1, mean, to 24 hr post-first dose, read-out: Clast",0.51 ng/mL
same,Cmax,"[1]; human, plasma, other: topical ophthalmic eye drops, 0.3 % suspension, single drop in each eye BID, plasma, Day 1, mean, 0.3% suspension 1 drop each eye BID, read-out: Cmax",0.59 ng/mL
same,Tmax,"[1]; human, plasma, other: topical ophthalmic eye drops, 0.3 % suspension, single drop in each eye BID, plasma, Day 1, median, read-out: Tmax",2 h
same,AUC0-t,"[1]; human, plasma, other: topical ophthalmic eye drops, 0.3 % suspension, single drop in each eye BID, plasma, Day 8, mean (SD), read-out: AUC0-t",12.8 ng·h/mL
same,AUC,"[1]; human, plasma, other: topical ophthalmic eye drops, 0.3 % suspension, single drop in each eye BID, plasma, Day 8, mean (SD), read-out: AUC0-tau",7.6 ng·h/mL
same,AUC,"[1]; human, plasma, other: topical ophthalmic eye drops, 0.3 % suspension, single drop in each eye BID, plasma, Day 8, mean (SD), read-out: AUC24",12.8 ng·h/mL
same,concentration at 12 h,"[1]; human, plasma, other: topical ophthalmic eye drops, 0.3 % suspension, single drop in each eye BID, plasma, Day 8, mean (SD), read-out: C12 trough",0.5 ng/mL
same,Tmax,"[1]; human, plasma, other: topical ophthalmic eye drops, 0.3 % suspension, single drop in each eye BID, plasma, Day 8, median, read-out: Tmax",1 h
same,Cmax,"[1]; human, plasma, topical or ocular, 0.3 % suspension, single drop in each eye BID, plasma, Day 8, mean (SD), topical ocular 0.3% BID 7 days + morning dose, read-out: Cmax",0.94 ng/mL
same,Cavg,"[1]; plasma, Day 8, mean (SD)",0.63 (0.30) ng/mL
same,Cmax,[1]; [3],0.94 (0.46) ng/mL
same,AUC 0-∞,[2],37.2 and 32.86
same,Plasma Cmax,[2],8.3 ng/mL
